Legend:
[1] = target: T1, NADP^+-dependent malic enzyme 1 (ME1) (Homo sapiens, UniProt P48163); experiment: Michaelis–Menten enzyme kinetics; format: biochemical
T1 sequence (P48163 1-572): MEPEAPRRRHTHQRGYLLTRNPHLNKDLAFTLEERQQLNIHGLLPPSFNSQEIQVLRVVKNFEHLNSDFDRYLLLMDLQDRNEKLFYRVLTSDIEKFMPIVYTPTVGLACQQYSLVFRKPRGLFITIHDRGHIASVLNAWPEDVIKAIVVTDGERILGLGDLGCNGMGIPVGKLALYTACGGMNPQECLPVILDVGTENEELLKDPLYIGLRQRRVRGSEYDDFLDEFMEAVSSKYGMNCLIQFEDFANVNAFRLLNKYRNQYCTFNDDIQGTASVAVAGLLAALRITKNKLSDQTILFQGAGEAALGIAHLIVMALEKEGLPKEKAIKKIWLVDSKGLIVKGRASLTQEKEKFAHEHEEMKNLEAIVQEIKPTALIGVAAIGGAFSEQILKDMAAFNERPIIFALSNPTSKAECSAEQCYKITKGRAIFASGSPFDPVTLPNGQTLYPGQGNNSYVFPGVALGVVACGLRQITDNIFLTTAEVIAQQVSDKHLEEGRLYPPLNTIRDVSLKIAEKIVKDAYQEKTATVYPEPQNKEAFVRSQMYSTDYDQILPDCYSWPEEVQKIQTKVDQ

[2] = target: T1, NADP^+-dependent malic enzyme 1 (ME1); experiment: X-ray crystal structure; format: biochemical

Structure (SMILES) | Michaelis-Menten enzyme kinetics [1] | IC50 [2]
NC(=O)c1ccc[n+]([C@@H]2O[C@H](COP(=O)(O)OP(=O)(O)OC[C@H]3O[C@@H](n4cnc5c(N)ncnc54)[C@H](OP(=O)(O)O)[C@@H]3O)[C@@H](O)[C@H]2O)c1 [NADP^+] | enzyme kinetics were examined using various concentrations of malate or NADP^+ | 
CCCc1nc2c(C)ccn(Cc3ccc4nc(-c5ccccc5-c5nnn[nH]5)sc4c3)c-2n1 [AS1134900, 6-[(7-methyl-2-propylimidazo[4,5-b]pyridin-4-yl)methyl]-2-[2-(1H-tetrazol-5-yl)phenyl]-1,3-benzothiazole] |  | 730 nM
O=C(O)CC(O)C(=O)O (stereo not drawn) [malate] | Michaelis–Menten plot of ME1 activity in the presence of AS1134900 vs DL-malate | 

Reference: paper PMC9352307 (Biochemistry, 2022)
